{
  "source": "paper PMC12035797",
  "about": "“Peptidomimetics Activating the Proteasome: A New Perspective for Parkinson’s Treatment” (Journal of Medicinal Chemistry, 2025)",
  "key": {"[1]": {"tested_on": "human 20S proteasome (Tau-441 substrate)", "experiment": "Tau-441 degradation by h20S (SDS-PAGE)", "assay_type": "biochemical", "details": "10 μM modulator, 37 °C, 1.5 h", "procedure": "The effectiveness of the compounds has also been examined by using proteins as substrates. By means of SDS-PAGE electrophoresis, we checked the extent to which model proteins were digested by the 20S proteasome alone and after its stimulation by 10 μM modulators. […] After incubation with the enzyme in the presence of each modulator, less than 40% of synuclein remained. […] The experiment was performed as it was described.[36] Briefly, α-synuclein (rPeptide, […], USA) and Tau-441 (Novus Biologicals, Centennial, CO, USA) were dissolved in 20 mM HEPES buffer (pH 7.4) and mixed with a human 20S proteasome. Samples were incubated at 37 °C for 1.5 h, after which the reaction was terminated by adding 4× Laemmli buffer. The levels of undigested proteins were evaluated by SDS-PAGE. The band intensities of proteins incubated with […] in the presence of a modulator were compared to those of proteins incubated with the enzyme alone, which were set as 100%. Three independent experiments were performed for each protein. The results are presented as the means ± SD. One-way ANOVA with Tukey's post-hoc test was used to determine statistical significance."}, "hippocampal cells": {"tested_on": "hippocampal cells", "experiment": "Survival of hippocampal cells after 7 days with activators (PFF model)", "assay_type": "cell-based, mouse", "details": "0.5 and 2.5 μM, PFF-treated", "text": "Encouraged by the results received, we tested the ability of the modulator-CPP constructs to increase α-synuclein degradation in a cell model using primary mouse neuronal cells. The presence of Lewy-like neurites and Lewy-like bodies containing aggregated α-synuclein with phosphorylated serine 129 (pS129-αsyn) is a characteristic feature of the brains of people with Parkinson’s disease. To mimic these aggregations, we introduced a solution of preformed fibrils (PFFs) to the media of neuronal cells, which led to the induction of α-synuclein phosphorylation and its aggregation in neurons isolated from mouse embryos. PFFs are purified, prion-like fibrils of α-synuclein that are produced by expressing a recombinant monomeric protein in bacteria. Seven days after PFFs are introduced to the cells, large aggregates are visible in the cell soma, often next to the cell nucleus. We added the PFF solution to the hippocampal cells, and after an hour of incubation, we introduced solutions of the activator. After 7 days, we immunostained neuronal cells using a monoclonal antibody against the NeuN protein, which is commonly used in neuronal differentiation studies to assess their functional status. Additionally, we stained the nuclei of all incubated cells with DAPI. […]"}},
  "data": [
    {"smiles": "C[C@@H](O)[C@H](NC(=O)[C@H](Cc1ccccc1)NC(=O)[C@H](Cc1ccc(O)cc1)NC(=O)CN(CCCCN)C(=O)[C@H](CCCNC(=N)N)NC(=O)[C@H](CCCNC(=N)N)NC(=O)[C@H](CCCNC(=N)N)NC(=O)[C@H](CCC(N)=O)NC(=O)[C@H](CCCNC(=N)N)NC(=O)[C@H](CCCNC(=N)N)NC(=O)[C@H](CCCCN)NC(=O)[C@H](CCCCN)NC(=O)[C@@H](N)CCCNC(=N)N)C(=O)NCC(=O)N[C@@H](CO)C(=O)N[C@@H](CCCCN)C(=O)N[C@@H](CC(=O)O)C(=O)N[C@@H](Cc1c[nH]c2ccccc12)C(=O)N[C@@H](CCCNC(=N)N)C(=O)N[C@@H](CO)C(=O)N[C@@H](Cc1ccc(O)cc1)C(=O)N[C@@H](Cc1ccc(O)cc1)C(=O)N[C@@H](CO)C(=O)O", "note": "[1f]", "values": [
      {"measurement": "Tau protein digested by h20S", "setting": "[1]", "value": "more than 90%"},
      {"measurement": "cytotoxicity to hippocampal cells", "setting": "hippocampal cells", "value": "did not show cytotoxicity to hippocampal cells"}
    ]}
  ]
}
